How the values were obtained:
HBV polymerase = biological target: T1, HBV polymerase (Hepatitis B virus genotype A2 subtype adw2, UniProt P03159); assay: In vitro reverse transcription activity of HBV polymerase (ELISA-type, DIG/biotin nucleotides); format: biochemical; settings: for inhibition at 0.01 µg/mL / inhibition at 0.1 µg/mL / inhibition at 1 µg/mL: read-out: Inhibition activity on HBV-RT (%)
T1 construct: made in house; host or cells: E. coli
Experimental: <Experiment 1> Inhibitory Effect on the In Vitro Activities of HBV Polymerase in Reverse Transcription
The following in vitro experiment was performed to determine the effect of the compounds of formula 1 on the activity of HBV polymerase during reverse transcription.
The present inventors submitted application for a patent concerning HBV polymerase genetically expressed in and separated from E.coli, the process of its preparation, and the method to measure the enzyme activities (KR 94-3918, KR 96-33998). In the present experiments HBV polymerase was used which had been expressed in E. coli as stated above.
The method used in the present invention to measure in vitro reverse transcribing activities of HBV polymerase is as follows. Basic principles are the same as for ELISA. Nucleotides with biotin or digoxigenin group attached are included as substrates and anti-DIG antibodies attached to peroxidase enzyme recognize the polymerized substrates.
To the wells coated with streptavidin, 20 μl of HBV polymerase, 20 μl of reaction mixture (10 μM each of DIG-UTP and Biotin-UTP, 46 mM Tris-HCl, 266 mM KCl, 27.5 mM MgCl2, 9.2 mM DTT substrate/primer nybrid), and 20 μl of test compound (added to 1, 0.1, and 0.01 μg/ml) were added and allowed to react at 22° C. for 15 hrs. During this reaction, HBV polymerase catalyzes DNA synthesis and digoxigenin and biotin attached to nucleotides form bonds with streptavidin coated on the bottom of wells. When the reaction was done, each well was washed with 250 μl of cleaning buffer (pH 7.0) for 30 seconds, which was repeated five times to remove remaining impurities. 200 μl of anti-DIG-POD antibody was added to each well and allowed to react for 1 hr at 37° C., and the wells were washed with cleaning buffer to remove impurities. 200 μl each of ABTS™, a substrate of peroxidase, was then added and allowed to react at room temperature for 30 min. Absorbance was measured at 405 nm using ELISA reader.
The percentage of reduction in HBV polymerase activities for reverse transcription was calculated using the group without test compound as a control and the results are shown in Table 3.

HBV = assay: Proliferation of HBV in HBV producing cell line HepG 2.2.15 (competitive PCR of culture supernatant); format: cell-based, Hepatitis B virus; settings: HepG 2.2.15, one week; for inhibition at 0.01 µg/mL / inhibition at 0.1 µg/mL / inhibition at 1 µg/mL: Hepatitis B virus, HepG2.2.15, 168 h, read-out: Inhibitory effect on the HBV proliferation: Inhibition activity on HBV-RT (%)
Experimental: <Experiment 2> Inhibitory Effect on the Proliferation of HBV in HBV Producing Cell Line
The following experiment was performed to determine inhibitory effects of compounds of formula 1 on the proliferation of HBV producing cell line.
To test for antiviral effect, replication and proliferation of HBV were measured in HepG 2.2.15, a human liver cancer cell line.
The cell concentration was adjusted to 1×10^5 cells/ml and 1 ml was added to each well of a 24-well cell culture plate, which was then kept in a culture box for 3-4 days at 37° C. under 5% CO2 until cells grew sufficiently, changing culture medium everyday. When the cells matured sufficiently, the test compounds were added to the final concentrations of 0.01, 0.1, and 1 μg/ml. One week after the addition of test compounds, the culture solution was centrifuged at 5,000 rpm for 10 min. 25 μl of supernatant was transferred to a new tube and 5 μl of lysis solution [0.54N NaOH, 0.06% NP40] was added to each tube. After keeping the tube at 37° C. for 1 hr, 30 μl of neutralizing solution [0.09N HCl 0.1MTris-HCl, pH7.4] was added as a reaction solution for competitive polymerase chain reaction (PCR).
PCR was performed using genetic sequence of HBV core protein as a matrix. PCR reaction was carried out by adding 1 unit of Taq polymerase enzyme to 25 pmol of each primer, 250 μM dNTP, 5 μl of PCR reaction solution [0.54N NaOH, 0. 06% NP40, 0.09N HCl, 0.1M Tris-HCl, pH 7.4].
DNA polymerized by PCR was electrophoresed on Agarose gel and quantitatively analyzed using an image analyzer (Gel Doc 1000, Bio-Rad) in order to evaluate the effect of compounds of the present invention on the reduction of HBV proliferation.
3TC (lamivudine) was used as a positive control at the same concentrations as those of the test compounds. The percentage of reduction in HBV proliferation was calculated using the group without test compound as a control and the results are represented in Table 4.

T1 sequence (P03159 whole entry): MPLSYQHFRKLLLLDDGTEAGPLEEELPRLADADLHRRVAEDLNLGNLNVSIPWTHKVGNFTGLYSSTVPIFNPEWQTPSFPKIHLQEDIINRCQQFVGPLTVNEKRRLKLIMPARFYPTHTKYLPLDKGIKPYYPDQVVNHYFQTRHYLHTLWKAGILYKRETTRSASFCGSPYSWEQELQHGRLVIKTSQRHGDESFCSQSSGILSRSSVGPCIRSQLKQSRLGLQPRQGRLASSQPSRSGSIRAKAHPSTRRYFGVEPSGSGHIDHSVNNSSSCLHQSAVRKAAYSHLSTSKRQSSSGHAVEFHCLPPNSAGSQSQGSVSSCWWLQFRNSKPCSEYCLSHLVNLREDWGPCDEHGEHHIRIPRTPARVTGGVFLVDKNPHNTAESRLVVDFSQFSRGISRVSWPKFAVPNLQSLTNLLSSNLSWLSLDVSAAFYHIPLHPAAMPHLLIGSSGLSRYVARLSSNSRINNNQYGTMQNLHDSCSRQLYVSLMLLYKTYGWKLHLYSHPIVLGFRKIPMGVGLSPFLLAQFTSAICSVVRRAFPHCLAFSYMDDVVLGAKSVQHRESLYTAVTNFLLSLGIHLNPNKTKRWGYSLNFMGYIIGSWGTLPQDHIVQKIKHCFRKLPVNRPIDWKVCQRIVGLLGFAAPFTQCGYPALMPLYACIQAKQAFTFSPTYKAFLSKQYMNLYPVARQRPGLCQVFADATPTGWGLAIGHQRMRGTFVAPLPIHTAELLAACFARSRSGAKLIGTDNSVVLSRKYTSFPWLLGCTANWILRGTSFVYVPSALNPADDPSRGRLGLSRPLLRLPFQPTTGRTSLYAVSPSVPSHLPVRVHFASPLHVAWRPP

6-(2-hydroxyethyl)methylamino-2-(1H-5-indazolylamino)-3-nitropyridine [Example 10]
Inhibition activity on HBV-RT (%) (HBV polymerase; 0.01 μg/ml test compound): 50%
Inhibition activity on HBV-RT (%) (HBV polymerase; 0.1 μg/ml test compound): 58%
Inhibition activity on HBV-RT (%) (HBV polymerase; 1 μg/ml test compound): 78%

CNc1ccc([N+](=O)[O-])c(Nc2ccc3[nH]ncc3c2)n1 [Example 3, 2-(1H-5-indazolylamino)-6-methyl amino-3-nitropyridine]
Inhibition activity on HBV-RT (%) (HBV polymerase; 0.01 μg/ml test compound): 20%
Inhibition activity on HBV-RT (%) (HBV polymerase; 0.1 μg/ml test compound): 47%
Inhibition activity on HBV-RT (%) (HBV polymerase; 1 μg/ml test compound): 58%
Inhibitory effect on the HBV proliferation: Inhibition activity on HBV-RT (%) (HBV; 0.1 μg/ml): 35%
Inhibitory effect on the HBV proliferation: Inhibition activity on HBV-RT (%) (HBV; 1 μg/ml): 53%

Nc1ccn([C@@H]2CS[C@H](CO)O2)c(=O)n1 [Example 3TC, lamivudine, reference compound]
inhibition at 0.01 µg/mL (HBV; 0.01 μg/ml): 48%
inhibition at 0.1 µg/mL (HBV; 0.1 μg/ml): 80%
inhibition at 1 µg/mL (HBV; 1 μg/ml): 99%

O=[N+]([O-])c1ccc(NC2CC2)nc1Nc1ccc2[nH]ncc2c1 [Example 8, 6-cyclopropylamino-2-(1H-5-indazolylamino)-3-nitropyridine]
inhibition at 0.01 µg/mL (HBV polymerase; 0.01 μg/ml test compound): 38%
inhibition at 0.1 µg/mL (HBV polymerase; 0.1 μg/ml test compound): 52%
inhibition at 1 µg/mL (HBV polymerase; 1 μg/ml test compound): 72%
inhibition at 0.01 µg/mL (HBV; 0.01 μg/ml): 25%
inhibition at 0.1 µg/mL (HBV; 0.1 μg/ml): 46%
inhibition at 1 µg/mL (HBV; 1 μg/ml): 65%

Nc1ccc([N+](=O)[O-])c(Nc2ccc3[nH]ncc3c2)n1 [Example 9, 6-amino-2-(1H-5-indazolylamino)-3-nitropyridine]
inhibition at 0.01 µg/mL (HBV polymerase; 0.01 μg/ml test compound): 40%
inhibition at 0.1 µg/mL (HBV polymerase; 0.1 μg/ml test compound): 59%
inhibition at 1 µg/mL (HBV polymerase; 1 μg/ml test compound): 80%

C[C@@H](CCO)Nc1ccc([N+](=O)[O-])c(Nc2ccc3cn[nH]c3c2)n1 [Example 13, 6-[(1S)-1-(hydroxyethyl)ethylamino]-2-(1H-6-indazolylamino)-3-nitropyridine]
inhibition at 0.01 µg/mL (HBV polymerase; 0.01 μg/ml test compound): 10%
inhibition at 0.1 µg/mL (HBV polymerase; 0.1 μg/ml test compound): 35%
inhibition at 1 µg/mL (HBV polymerase; 1 μg/ml test compound): 66%

COCC(C)Nc1ccc([N+](=O)[O-])c(Nc2ccc3[nH]ncc3c2)n1 (centres unmarked) [Example 15, 2-(1H-5-indazolylamino)-6-(2-methoxy-1-methyl)ethylamino-3-nitropyridine]
Inhibition activity on HBV-RT (%) (HBV polymerase; 0.01 μg/ml test compound): 47%
Inhibition activity on HBV-RT (%) (HBV polymerase; 0.1 μg/ml test compound): 68%
Inhibition activity on HBV-RT (%) (HBV polymerase; 1 μg/ml test compound): 97%
Inhibitory effect on the HBV proliferation: Inhibition activity on HBV-RT (%) (HBV; 0.01 μg/ml): 36%
Inhibitory effect on the HBV proliferation: Inhibition activity on HBV-RT (%) (HBV; 0.1 μg/ml): 60%
Inhibitory effect on the HBV proliferation: Inhibition activity on HBV-RT (%) (HBV; 1 μg/ml): 95%

CN1CCN(Nc2ccc([N+](=O)[O-])c(Nc3ccc4[nH]ncc4c3)n2)CC1 [Example 17, 2-(1H-5-indazolylamino)-6-(4-methyl-1-piperazinyl)amino-3-nitropyridine]
inhibition at 0.01 µg/mL (HBV polymerase; 0.01 μg/ml test compound): 41%
inhibition at 0.1 µg/mL (HBV polymerase; 0.1 μg/ml test compound): 52%
inhibition at 1 µg/mL (HBV polymerase; 1 μg/ml test compound): 75%

O=[N+]([O-])c1ccc(NCc2cccnc2)nc1Nc1ccc2[nH]ncc2c1 [Example 19, 2-(1H-5-indazolylamino)-3-nitro-6-(3-pyridyl)methylaminopyridine]
inhibition at 0.01 µg/mL (HBV polymerase; 0.01 μg/ml test compound): 42%
inhibition at 0.1 µg/mL (HBV polymerase; 0.1 μg/ml test compound): 58%
inhibition at 1 µg/mL (HBV polymerase; 1 μg/ml test compound): 91%
inhibition at 0.01 µg/mL (HBV; 0.01 μg/ml): 30%
inhibition at 0.1 µg/mL (HBV; 0.1 μg/ml): 51%
inhibition at 1 µg/mL (HBV; 1 μg/ml): 85%

CN1CCN(c2ccc([N+](=O)[O-])c(Nc3ccc4cn[nH]c4c3)n2)CC1 [Example 26, 2-(1H-6-indazolylamino)-6-(4-methyl-1-piperazinyl)-3-nitropyridine]
inhibition at 0.01 µg/mL (HBV polymerase; 0.01 μg/ml test compound): 18%
inhibition at 0.1 µg/mL (HBV polymerase; 0.1 μg/ml test compound): 40%
inhibition at 1 µg/mL (HBV polymerase; 1 μg/ml test compound): 63%

O=[N+]([O-])c1ccc(N2CCC(O)CC2)nc1Nc1ccc2[nH]ncc2c1 [Example 28, 6-(4-hydroxy-1-piperidinyl)-2-(1H-5-indazolylamino)-3-nitropyridine]
inhibition at 0.01 µg/mL (HBV polymerase; 0.01 μg/ml test compound): 20%
inhibition at 0.1 µg/mL (HBV polymerase; 0.1 μg/ml test compound): 34%
inhibition at 1 µg/mL (HBV polymerase; 1 μg/ml test compound): 55%

O=[N+]([O-])c1ccc(N2CCC(O)CC2)nc1Nc1ccc2cn[nH]c2c1 [Example 29, 6-(4-hydroxy-1-piperidinyl)-2-(1H-6-indazolylamino)-3-nitropyridine]
inhibition at 0.01 µg/mL (HBV polymerase; 0.01 μg/ml test compound): 10%
inhibition at 0.1 µg/mL (HBV polymerase; 0.1 μg/ml test compound): 35%
inhibition at 1 µg/mL (HBV polymerase; 1 μg/ml test compound): 52%

Source: patent US6743795B1, “3-nitropyridine derivaives and the pharmaceutical compositions containing said derivatives” (Dong Wha Pharm. Ind. Co. Ltd., priority 1999, dated 2004)
